Consider eleven compounds from patent US5270310A, “N-aminoalkyl amide inhibitors of protein kinase C” (Sphinx Pharmaceuticals Corporation, priority 1991, dated 1993).

Like-named read-outs stand apart in the source and are kept apart here. Bounds are passed on as bounds.

Assay [1] has as its target T1, protein kinase (PKA), catalytic subunit (Homo sapiens, UniProt P17612).
T1 construct: purchased Sigma Chemical Company, St. Louis, Mo
The assay can be described thus: cAMP-Dependent Protein Kinase (PKA) Assay. As to conditions: free base. Type of assay: biochemical. The protocol:
Compound found to be inhibitors of protein kinase C are tested for inhibitory activity against protein kinase (PKA). This enzyme, like protein kinase C, plays an important role in cell-cell communication and is activated by a second messenger, cAMP. Secondary screening against PKA is useful for ascertaining the selectivity of the compounds of the invention. The catalytic subunit of PKA (Sigma Chemical Company, St. Louis, Mo.) is mixed with buffer before addition of the inhibitor in dimethylsulfoxide (DMSO). The assay is started by the addition of 32P-ATP and the reaction is allowed to proceed for 10 min before stopping with 25% trichloroacetic acid (TCA) and 1.0 mg/ml bovine serum albumin (BSA). The phosphorylated protein is isolated by filtration and the radioactivity is counted in a beta scintillation counter.

In assay [2] the target is protein kinase C (PKC). In words: Protein Kinase C Inhibition. Type of assay: biochemical, rat. The protocol: The protein kinase C (PKC) assay is designed to duplicate the in vivo conditions required for protein kinase C function. Therefore, pH, salt and cofactor concentrations are similar to physiologic levels. Histone H1 (lysine rich) is used in the assay as the phosphorylation acceptor protein because it is readily available and serves as a good substrate for protein kinase C. The enzyme is prepared from rat brain and is purified to apparent homogeneity as determined by a single band on silver stained SDS-polyacrylamide. Studies on the mechanism of regulation of protein kinase C by phospholipids, DAG and Ca^+2 have been hampered by the physical properties of the lipid cofactors. In the screening assay, phosphatidylserine (PS) and DAG are co-sonicated to form unilamellar and multilamellar vesicles. The concentration of lipids in the assay are suboptimal to maximize the detection potential of the assay for inhibitors. […] The assay is started with the addition of enzyme and stopped after 10 min by the addition of 25% trichloroacetic acid (TCA) and 1.0 mg/ml bovine serum albumin (BSA). The radioactive histone product is retained and washed on glass fiber filters that allow the unreacted ^32 P-ATP to pass through. The amount of phosphorylation is determined by the radioactivity measured in a scintillation counter. Controls are included in every assay to measure background activity in the absence of enzyme, activity in the absence of lipids and the maximum enzyme activity with saturating levels of the activator lipids.
Both the free base and the HCl salt were tested.

For assay [3], the system named is MCF-7 human breast tumor cell line. The assay can be described thus: Human Tumor Cell Growth Inhibition, MCF-7. Type of assay: cell-based. As to conditions: for IC50: Homo sapiens, MCF7, 3H-thymidine incorporation, value outside parentheses (not salt); for inhibit growth of MCF-7 cells: result in words. The protocol: MCF-7 a human breast tumor cell line and MCF-7/ADR an adriamycin resistant line of MCF-7 cells were obtained from the National Cancer Institute, Frederick, Md. […] Human tumor cells are trypsinized (0.05% trypsin, GIBCO), counted with a hemacytometer and seeded at a concentration of 10,000 cells/well in a 96 well microtiter plate. After allowing cells to attach to the surface overnight, the culture medium is aspirated and replaced with 100 μl of fresh medium. Test agents are diluted to determine dose response at 2× final concentration and added in quadruplicate at 100 μl/well to bring the total volume of each well to 200 μl. The microtiter plate is then incubated at 37° C. 5% CO2 overnight (18-24 hrs) before ^3 H-thymidine is added at a concentration of 0.5 μCi/well in 50 μl culture medium. The plate is incubated again for 4 hrs under the same conditions as above. Supernatant is then aspirated and 50 μl trypsin (0.05%, GIBCO) is added to each well. Cells are checked microscopically to determine detachment from surfaces, and plates are then harvested with a cell harvester (PHD, Cambridge Technology, Inc.) Filter papers corresponding to wells are placed in scintillation vials and counted to determine the amount of ^3 H-thymidine incorporated by the cells. Test agent response is compared to a positive control of cell wells with culture media only to determine the IC50. IC50 is the concentration of test compound required to inhibit fifty per cent of the incorporation of ^3 H-thymidine into proliferating cells not exposed to test agent. Uptake of ^3 H-thymidine is a standard test for measuring the metabolism of cells. Cells which are actively proliferating take up ^3 H-thymidine, whereas cells that are not proliferating take up ^3 H-thymidine at much slower rates or not at all. Test agents that inhibit the uptake of ^3 H-thymidine thus slow the growth of cells.
On the technique in general: Uptake of a labelled nucleoside into DNA is a usual measure of proliferation.

The test system of assay [4] is PMA-stimulated neutrophils. In words: Neutrophil Superoxide Anion (O2^-) Release Assay. It counts as cell-based, human. As to conditions: for IC50: Homo sapiens, Neutrophil, PMA-stimulated; for inhibit O2^- production by PMA-stimulated neutrophils: result in words. Here is the method:
Neutrophils are isolated form whole blood collected from human volunteers. All reagent materials are obtained from Sigma Chemical Company with the exception of isotonic saline (Travenol Laboratories, Inc., Deerfield, Ill.) and lymphocyte separation medium (Organon Teknika, Durham, N.C.).
Whole blood is drawn and mixed with sodium heparin (final conc. 10 units/ml) to prevent clotting. An equal volume of dextran (3.0%) in isotonic saline is added, mixed, and allowed to settle for 30 min to bind red blood cells (RBC). Supernatant is removed, underlayered with lymphocyte separation medium and centrifuged for 40 min at 400 xg in a centrifuge (Beckman GPR, Norcross, Ga). The pellet is alternately resuspended in 0.2% and 1.6% NaCl to lyse RBCs before washing with Hank's Balanced Salt Solution (HBSS). The washed pellet is resuspended in 10 mL HBSS and placed on ice before counting on a hemacytometer.
The neutrophil cell concentration is adjusted to 2×10^6 cells/ml with HBSS before adding 0.8 mL cells to 12×75 mm polypropylene test tubes (Fisher Scientific). Test agents are diluted to determine dose response and added at 10× final concentration at a volume of 0.1 mL/tube in duplicate. Then 10× concentrations of cytochrome C (15 mg/ml) with catalase (3000 units/ml) either alone or containing 25 ng/ml phorbol 12-myristate 13-acetate (PMA) are added at a volume of 0.1 mL/tube and incubated at 37° C. for 30 min before stopping the reaction by placing tubes on ice. Tubes are then centrifuged at 900 xg for 10 min, 0.5 mL supernatant is removed and added to 0.5 mL H2 O in a microcuvette. Optical density (OD) of cytochrome c is read in a spectrophotometer (Shimadzu) at 550 nm. The ΔOD of cytochrome c is obtained between PMA-stimulated and non-stimulated tubes, and the dose responses of the test agents are compared to the positive controls (which contain HBSS in place of test agents). PMA stimulates O2^- production which reduces cytochrome c. Reducing cytochrome c increases its absorbance, and the change in OD of cytochrome c is proportional to the amount of O2^- produced by PMA stimulation. Inhibition of the O2^- burst by test compounds of the invention is seen as a reduction in the change in optical density. Inhibition is expressed as IC50 μM and is the amount of test compound that will inhibit fifty percent of the PMA-stimulated respiratory outburst, i.e. O2^- production.

The test system of assay [5] is NHEK cells (proliferating keratinocytes). The assay can be described thus: Human Keratinocyte Inhibition. It counts as cell-based. As to conditions: 3H-thymidine incorporation. Here is the method:
Proliferating keratinocytes (NHEK cells purchased from Clonetics, Inc., San Diego, Calif.) in second passage were grown in Keratinocyte Growth Medium (KGM) (Clonetics, Inc.) Cells are trypsinized (0.025% trypsin, Clonetics), counted with a hemacytometer (Scientific Products), and seeded at a concentration of 2,500 cells/well in a 96 well microtiter plate. After allowing cells to attach to the surface overnight, the culture medium is aspirated and replaced with 100 μl of fresh KGM. […] IC50 is the concentration of test compound required to inhibit fifty percent of the incorporation of ^3 H-thymidine into proliferating cells not exposed to test agent.

The test system of assay [6] is MCF-7 human breast tumor cell line. In words: Human Tumor Cell Growth Inhibition, MCF-7. It counts as cell-based. As to conditions: MCF7, 3H-thymidine incorporation, value in parentheses: salt.
[7] abbreviates: value outside parentheses (not salt), read-out: Neutrophil Superoxide Release IC50.
Where [8] appears, read: value outside parentheses (not salt), read-out: NHEK IC50.
Where [9] appears, read: value in parentheses: salt, read-out: Neutrophil Superoxide Release IC50 (salt).
The mark [10] stands for this setting: value in parentheses: salt, read-out: NHEK IC50 (salt).

As a reminder, the IC50 is the concentration that inhibits the measured activity by half. Take `CCCCCCCCCCCCCCCC(=O)N(CCCN(C)C)C(C)C` [Compound 9, N,N-Dimethyl-N'-(2-propyl)-N'-hexadecanoyl-1,3-propanediamine]: the IC50 in assay [1] was 172 µM; in assay [2] (HCl salt) it was 130 µM; in assay [2] (free base) it was 146 µM; in assay [3] it was 5.1 µM; in assay [4] (setting [7]), 0.9 µM; in assay [5] (setting [8]), 0.14 µM.

Take `CCCCCCCCCCCCCCCC(=O)NCCCN(C)C` [Compound 6, N,N-Dimethyl-N'hexadecanoyl-1,3-propanediamine]: the IC50 in assay [1] amounted to 140 µM; in assay [2] (HCl salt), 50 µM; in assay [2] (free base), 50 µM; in assay [3], 4.5 µM; in assay [4] (setting [9]), 2.8 µM; in assay [4] (setting [7]), 2.32 µM. The IC50 in assay [5] (setting [10]) was found to be 0.78 µM; in assay [6], 3.5 µM. For the same compound, in assay [3], the “inhibit growth of MCF-7 cells” value is listed as “effectively inhibit growth of MCF-7 cells at micromolar concentrations”. Also, the “inhibit O2^- production by PMA-stimulated neutrophils” value in assay [4] (HCl salt) and in assay [4] (compound itself) was “inhibit O2^- production by PMA-stimulated neutrophils at micromolar concentrations” in each case.

Turning to `CCCCCCCCCCCCCCCC(=O)N(CC)CCCN(C)C` [Compound 7, N,N-Dimethyl-N'-ethyl-N'-hexadecanoyl-1,3-propanediamine], the IC50 was found to be 119 µM in assay [1], 38 µM in assay [2] (HCl salt) and 50 µM in assay [2] (free base).

With `CCCCCCCCCCCCCCCC(=O)N(CCC)CCCN(C)C` [Compound 8, N,N-Dimethyl-N'-hexadecanoyl-N'-propyl-1,3-propanediamine], the IC50 in assay [1] is more than 218 µM; in assay [2] (HCl salt), 48 µM; in assay [2] (free base) it was 131 µM; in assay [3] it was 9.7 µM; in assay [4] (setting [7]), 2.9 µM; in assay [5] (setting [8]) it was 1.03 µM.

As for `CCCCCCCCCCCCCCCCN(CCCN(C)C)C(C)=O` [Compound 20, N-Acetyl-N-hexadecyl-N',N'-dimethyl-1,3-propanediamine], the IC50 in assay [1] came out at 67 µM; in assay [2] (HCl salt), 44 µM; in assay [2] (free base), 69 µM; in assay [4] (setting [7]), 1.1 µM; in assay [5] (setting [8]), 1.3 µM.

Turning to `CCCCCCCCCCCCCCCC(=O)NCCC[N+](C)(C)C` [Compound 15, N-Hexadecanoyl-3-trimethylammoniumpropylamine iodide], the IC50 in assay [2] (free base) is 24 µM; in assay [3], 5 µM; in assay [5] (setting [8]) it was 3.3 µM.

Take `CCCCCCCCCCCCCCCC(=O)NCCCN(CC)CC` [Compound 10, N,N-Diethyl-N'-hexadecanoyl-1,3-propanediamine]: the IC50 in assay [1] is more than 218 µM; in assay [2] (free base) it was 131 µM; in assay [5] (setting [8]) it was 1.56 µM.

With `CCCCCCCCCCCCCCCC(=O)N(C)CCN(C)C` [Compound 3], the half-maximal inhibitory concentration (IC50) is 66 µM in assay [2] (HCl salt) and 40 µM in assay [2] (free base).

`CCCCCCCCCCCCCCCC(=O)N(CCC[N+]1(C)CCOCC1)Cc1ccccc1` [Compound 22]: the IC50 in assay [1] is less than 44 µM; in assay [2] (free base), 45 µM; in assay [3] it was 15.4 µM; in assay [5] (setting [8]), 1.6 µM.

As for `CCCCCCCCCCCCCCCC(=O)N(C)CCN(C)C` [Compound 25, N,N,N'-Trimethyl-N'-hexadecanoyl-1,3-ethanediamine], the IC50 in assay [1] is more than 218 µM; in assay [2] (HCl salt), 100 µM; in assay [2] (free base), 92 µM.

On to `CCCCCCCCCCCCCCCC(=O)N(C)CCCN(C)C` [Compound 4, N-Hexadecanoyl-N,N',N'-trimethyl-1,3-propanediamine], for which the IC50 stood at 90 µM in assay [1]; 57 µM in assay [2] (HCl salt); 107 µM in assay [2] (free base); 1.5 µM in assay [3]; 2.39 µM in assay [4] (setting [9]); 45 µM in assay [4] (setting [7]). Also, the figures for the IC50 in assay [5] (setting [10]), in assay [5] (setting [8]) and in assay [6] were 2.4 µM, 0.8 µM and 2.9 µM, respectively. Also, the “inhibit growth of MCF-7 cells” value in assay [3] is “effectively inhibit growth of MCF-7 cells at micromolar concentrations”. Further, the “inhibit O2^- production by PMA-stimulated neutrophils” value in assay [4] (HCl salt) and in assay [4] (compound itself) was “inhibit O2^- production by PMA-stimulated neutrophils at micromolar concentrations” in each case.
